Entries after “also recorded” stand apart in the source; their conditions may differ.
How the values were obtained:
[1] = tested on: mouse embryonic fibroblast (MEF) cells; assay: Par-4 secretion from normal mouse fibroblasts (Western blot of conditioned medium); format: cell-based
Protocol: In another aspect, the subject technology provides assays for screening test compounds that interfere with vimentin binding to PAR-4 or which cause release of vimentin-bound PAR-4. In a typical assay, cells, such as HEL cells, are seeded onto an appropriate support, such as 60-mm plates containing supplemented growth medium (e.g., supplemented with 0.1% serum) at a desired confluency, such as 40-70% confluency, and treated with the test compound (e.g., 500 nM) or control vehicle. The cells are allowed to grow for a period of time, such as 24 hours, after which the conditioned medium (CM) is concentrated (e.g., concentrated 30× to 100 μl using Millipore tubes (Amicon Ultra centrifugal filters, Ultracel-10K) by 15 min centrifugation at 4500 rpm). The concentrated CM is then subjected to co-immunoprecipitation using detectably labeled PAR-4 and vimentin antibodies in the presence of various concentrations of purified PAR-4 and the precipitated proteins are resolved by SDS-PAGE and analyzed by Western blot analysis. The amount of immunoprecipitated PAR-4-vimentin complex is compared to that of control samples. For example, chemiluminescent signals may be quantified in the BIO-RAD Molecular Imager ChemiDoc XRS+Imaging system using Quantity One software. Induction of Par-4 secretion by the test drug (e.g., 500 nM), as judged by this Western blot analysis procedure, will indicate dissociation of Par-4 from vimentin. […] For such experiments, cells may be treated with the test drug (e.g., 500 nM) or vehicle for an appropriate period of time, such as 24 hours, and then cell lysates are prepared and subjected to immunoprecipitation using an appropriate amount of a Par-4 antibody, vimentin antibody or control IgG antibody by using any standard immunoprecipitation procedure. Following […], the complexes are resolved, preferably by Western blot analysis as described above. If the drug inhibits the binding of Par-4 to vimentin, it will be reflected in the lack of co-immunoprecipitation of Par-4 with the vimentin antibody, and co-immunoprecipitation of vimentin with the Par-4 antibody.
(§1) Co-Immunoprecipitation and Western blot analysis: Protein extracted from cell lysates was filtered, pre-cleared with 25 μL (bed volume) of protein G-Sepharose beads and immunoprecipitated with 1 μg of respective antibodies. The eluted proteins were resolved by SDS-PAGE, and subjected to Western blot analysis as described.
To identify Par-4 secretagogues, we synthesized and screened 3-arylquinolines as well as related quinolones and quinothiolones for the secretion of Par-4 protein from normal fibroblasts under conditions that are not toxic to the cells.
We screened representative members of each of these heterocyclic families on a compound-by-compound basis for the secretion of Par-4 protein from normal mouse fibroblasts under conditions that were not toxic to the cells. Initial expectations were that these heterocycles would serve as Nutlin-3a surrogates and inhibit MDM2, but studies reported herein established a completely different mechanism of action, reflecting that the structural dissimilarities between these heterocycles and Nutlin-3a outweighed the similarities that led to their initial selection for screening.

[2] = tested on: normal/immortalized human cells; assay: Par-4 secretion from normal/immortalized human cells; format: cell-based
Protocol: In another aspect, the subject technology provides assays for screening test compounds that interfere with vimentin binding to PAR-4 or which cause release of vimentin-bound PAR-4. In a typical assay, cells, such as HEL cells, are seeded onto an appropriate support, such as 60-mm plates containing supplemented growth medium (e.g., supplemented with 0.1% serum) at a desired confluency, such as 40-70% confluency, and treated with the test compound (e.g., 500 nM) or control vehicle. The cells are allowed to grow for a period of time, such as 24 hours, after which the conditioned medium (CM) is concentrated (e.g., concentrated 30× to 100 μl using Millipore tubes (Amicon Ultra centrifugal filters, Ultracel-10K) by 15 min centrifugation at 4500 rpm). The concentrated CM is then subjected to co-immunoprecipitation using detectably labeled PAR-4 and vimentin antibodies in the presence of various concentrations of purified PAR-4 and the precipitated proteins are resolved by SDS-PAGE and analyzed by Western blot analysis. The amount of immunoprecipitated PAR-4-vimentin complex is compared to that of control samples. For example, chemiluminescent signals may be quantified in the BIO-RAD Molecular Imager ChemiDoc XRS+Imaging system using Quantity One software. […]

[3] = molecular target: T1, binding of Par-4 to vimentin (Homo sapiens, UniProt P08670); assay: Co-immunoprecipitation and immunocytochemistry of Par-4 and vimentin; format: cell-based; details: cells treated with compound
T1 construct: the Par-4 antibody co-immunoprecipitated endogenous vimentin; endogenous in cells
T1 sequence (P08670 2-466 limits assumed): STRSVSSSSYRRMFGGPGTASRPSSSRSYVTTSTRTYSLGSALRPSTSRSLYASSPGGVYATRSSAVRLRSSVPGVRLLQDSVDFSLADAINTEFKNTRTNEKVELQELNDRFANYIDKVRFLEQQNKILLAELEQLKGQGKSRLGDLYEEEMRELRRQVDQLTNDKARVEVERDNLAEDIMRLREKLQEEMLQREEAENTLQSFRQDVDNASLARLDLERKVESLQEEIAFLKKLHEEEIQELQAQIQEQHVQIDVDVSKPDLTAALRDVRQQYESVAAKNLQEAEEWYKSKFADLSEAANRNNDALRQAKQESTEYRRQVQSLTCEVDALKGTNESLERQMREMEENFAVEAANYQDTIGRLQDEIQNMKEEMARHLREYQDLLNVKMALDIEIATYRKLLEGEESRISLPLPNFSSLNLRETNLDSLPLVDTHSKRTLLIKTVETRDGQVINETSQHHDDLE
Protocol: as §1

[4] = tested on: cell surface GRP78; assay: Paracrine apoptosis by CM from treated MEFs with GRP78 neutralizing antibody; format: cell-based; details: CM from Par-4+/+ MEFs treated with 500 nM
Protocol: FIGS. 4A and 4B are bar graphs illustrating percent cell surface GRP-78 expression and apoposis activity for an arylquinoline of the present disclosure. FIG. 4A is a bar graph showing cell surface GRP78 levels in cancer cells treated with CM from MEFs exposed to Arylquin 1. Par-4+/+ MEFs or Par-4−/− MEFs were treated with vehicle or Arylquin 1 (500 nM) for 24 h. The CM from these MEFs was incubated with the indicated cancer cells for 24 h. The cancer cells were then subjected to FACS analysis for cell surface GRP78 expression. Data shown represent mean values of three experiments±s.d. Asterisks (**) or (*) indicate statistical significance (P<0.0001) or (P<0.001), respectively, based on two-way ANOVA with data normality and equality of variance assumptions. […] After 24 h, the cancer cells were scored for apoptosis by ICC for active caspase-3. […]
See Hebbar, N., Wang, C. & Rangnekar, V. M. J Cell Phys 227, 3715-3721 (2012) and Shrestha-Bhattarai, T., Hebbar, N. & Rangnekar, V. M. Cancer Cell 24, 3-5 (2013). A total of three independent experiments were performed; and approximately 500 cells were scored in each experiment for apoptosis under a fluorescent microscope. Cell surface GRP78 expression on the cancer cell surface was quantified by FACS analysis in the Flow Cytometry Shared Resource Facility, Markey Cancer Center as previously described. […]

[5] = tested on: Par-4 in serum; assay: Circulating Par-4 in serum of injected mice; format: in vivo, C57BL/6 mice; details: 10 mg/kg intraperitoneal, 24 h
Protocol: Animal experiments: C57BL/6 mice were injected via the intraperitoneal route with Arylquin 1 (10 mg/kg body weight) or corn oil vehicle, and whole-blood samples were collected 24 h later. Serum was separated from the blood samples, heated at 56° C. to inactivate complement. Aliquots of the mouse serum samples were added to the growth medium (final 20% mouse serum) of normal and cancer cells in culture and tested for induction of ex vivo apoptosis in cancer cells. All animal procedures were performed with University of Kentucky IACUC approval.

CN(C)c1ccc2cc(-c3ccccc3F)c(N)nc2c1 [Arylquin 1, 3-(2-fluorophenyl)-N^7,N^7-dimethylquinoline-2,7-diamine]
Par-4 secretion ([1]; MEF cells): dose-dependent secretion
level of Par-4 secretion, structure-activity comparison among analogs ([1]; normal mouse fibroblasts, conditions not toxic to the cells): most active; also recorded: highest levels of Par-4 secretion
secretion of Par-4 from normal fibroblasts and epithelial cells ([2]; nanomolar concentrations): dose-dependent secretion of Par-4 at nanomolar concentrations
Par-4 secretion ([2]; normal/immortalized human cells): induced robust secretion of Par-4
Par-4 co-immunoprecipitation and co-localization with vimentin [3]: neither Par-4 co-immunoprecipitation nor co-localization with vimentin
vimentin expression [3]: not associated with inhibition of vimentin expression
mediation of paracrine apoptosis [4]: mediated via cell surface GRP78
Par-4 secretion in serum relative to vehicle control [5]: 5 fold

— US9873670B2, “Arylquinoline and analog compounds and use thereof to treat cancer” (UNIVERSITY OF KENTUCKY RESEARCH FOUNDATION, priority 2013, dated 2018)
